Results on 30 compounds are retold here after patent US8835428B2, “Diacylglycerol acyltransferase inhibitors” (Piramal Enterprises Limited, priority 2008, dated 2014).

By inhibition is commonly meant the share of the control response that was lost under treatment. Read a high inhibition as a response far below the control.

One test concerns the target T1, hDGAT1 (Homo sapiens, UniProt O75907).
T1 construct: host or cells: Sf9 insect cells (baculovirus); microsomal preparation
T1 sequence (O75907 1-488): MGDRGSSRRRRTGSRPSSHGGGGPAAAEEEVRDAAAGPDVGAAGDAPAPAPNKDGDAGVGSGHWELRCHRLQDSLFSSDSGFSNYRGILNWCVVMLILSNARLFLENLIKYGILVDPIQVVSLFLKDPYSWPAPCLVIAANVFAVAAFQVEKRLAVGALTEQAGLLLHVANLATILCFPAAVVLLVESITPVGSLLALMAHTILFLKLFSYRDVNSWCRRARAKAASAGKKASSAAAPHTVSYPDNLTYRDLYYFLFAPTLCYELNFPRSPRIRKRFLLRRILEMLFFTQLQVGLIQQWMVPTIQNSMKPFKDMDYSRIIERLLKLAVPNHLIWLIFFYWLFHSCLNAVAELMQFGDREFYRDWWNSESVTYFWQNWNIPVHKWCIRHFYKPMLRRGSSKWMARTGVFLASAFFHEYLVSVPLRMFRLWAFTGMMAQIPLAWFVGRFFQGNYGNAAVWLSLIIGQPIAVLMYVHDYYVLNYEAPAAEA
The experiment in a line: In-vitro DGAT1 assay (hDGAT1 microsomes from Sf9 cells, 14C oleoyl CoA, triglyceride formation). The class given is biochemical. To be noted: At 1 μM. In outline: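 Human DGAT1 in baculovirus-infected Sf9 microsomes (2.5–10 μg), [14C]oleoyl-CoA with 409.5, 1228.5 or 1638 μM 1,2-dioleoyl-sn-glycerol, Tris-HCl pH 7.4 buffer with BSA. Compounds screened at 10, 5 and 1 μM in duplicate. Reaction 10 min at 37 °C; heptane-extracted [14C]triglyceride counted by scintillation.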
The compound `Cc1ccc(NC(=O)Nc2ccc(-c3cc(C(=O)NC(C(=O)O)C(C)C)on3)cc2)cc1F` (stereo not drawn) [Example 250, 2-(3-(4-(3-(3-Fluoro-4-methylphenyl)ureido)phenyl)isoxazole-5-carboxamido)-3-methylbutanoic acid] showed an inhibition at 1 µM of 75 to 100%.
On the same count and under the same terms, under `CC(C)[C@@H](NC(=O)c1cc(-c2ccc(NS(=O)(=O)c3c(F)cccc3F)cc2)no1)C(=O)O` [Example 317, (R)-2-(3-(4-(2,6-Difluorophenylsulfonamido)phenyl)isoxazole-5-carboxamido)-3-methylbutanoic acid] stands 0 to 50%.
In the case of `C=C(NC(=O)c1cc(-c2ccc(NC(=O)Nc3ccc(C)cc3)cc2)no1)C(=O)OC` [Example 303, Methyl 2-(3-(4-(3-p-tolylureido)phenyl)isoxazole-5-carboxamido) acrylate], the “% inhibition of hDGAT1” value is on record as “+ (>0% Inhibition ≦50)”.
Compound `CC(C)[C@@H](NC(=O)c1cc(-c2ccc(NC(=O)Nc3ccccc3Cl)cc2)no1)C(=O)O` [Example 221, (R)-2-(3-(4-(3-(2-Chlorophenyl)ureido)phenyl)isoxazole-5-carboxamido)-3-methylbutanoic acid] had an inhibition at 1 µM of 75 to 100%.
Compound `CC(C)[C@@H](N/C(=N/O)c1cc(-c2ccc(NC(=O)Nc3ccccc3F)cc2)no1)C(=O)O` [Example 226, (R,E)-2-(3-(4-(3-(2-Fluorophenyl)ureido)phenyl)-N′-hydroxyisoxazole-5-carboximidamido)-3-methylbutanoic acid] had an inhibition at 1 µM of 0 to 50%.
As to `CC(C)[C@H](NC(=O)c1cc(-c2ccc(NC(=O)Nc3ccc(Cl)cc3)cc2)no1)C(=O)O` [Example 179, (S)-2-(3-(4-(3-(4-Chlorophenyl)ureido)phenyl)isoxazole-5-carboxamido)-3-methylbutanoic acid], the inhibition at 1 µM was in the range of 75 to 100%.
On the same count and under the same terms, the value for `CC(C)C(NC(=O)c1cc(-c2ccc(NC(=O)C(=O)Nc3cccc(C(F)(F)F)c3)cc2)no1)C(=O)O` (stereo not drawn) [Example 337, 3-Methyl-2-(3-(4-(2-oxo-2-(3-(trifluoromethyl)phenylamino)acetamido)phenyl)isoxazole-5-carboxamido)butanoic acid] was 0 to 50%; that for `COC(=O)[C@H](NC(=O)c1cc(-c2ccc(NC(=O)Nc3ccccc3Cl)cc2)no1)C(C)C` [Example 220, (R)-Methyl 2-(3-(4-(3-(2-chlorophenyl)ureido)phenyl)isoxazole-5-carboxamido)-3-methylbutanoate] was 0 to 50%; that for `COC(=O)[C@H](NC(=S)c1cc(-c2ccc(NC(=O)Nc3ccc(C)cc3)cc2)no1)C(C)C` [Example 223, (R)-Methyl 3-methyl-2-(3-(4-(3-p-tolylureido)phenyl)isoxazole-5-carbothioamido)butanoate] was 0 to 50%.
On to `CC(C)[C@@H](NC(=O)c1cc(-c2ccc(NS(=O)(=O)c3cc(F)cc(F)c3)cc2)no1)C(=O)O` [Example 320, (R)-2-(3-(4-(3,5-Difluorophenylsulfonamido)phenyl)isoxazole-5-carboxamido)-3-methylbutanoic acid], for which the inhibition at 1 µM fell in the range of 0 to 50%.
The same measure, in the same setting: under `COC(=O)[C@H](C(C)C)N(C)C(=O)c1cc(-c2ccc(NC(=O)Nc3ccccc3F)cc2)no1` [Example 305, (S)-Methyl 2-(3-(4-(3-(2-fluorophenyl)ureido)phenyl)-N-methylisoxazole-5-carboxamido)-3-methylbutanoate] stands 50 to 75%; under `CC(C)[C@H](NC(=O)c1csc(-c2ccc(NC(=O)Nc3ccc(F)cc3F)cc2)n1)C(=O)O` [Example 359, (S)-2-(2-(4-(3-(2,4-difluorophenyl)ureido)phenyl)thiazole-4-carboxamido)-3-methylbutanoic acid], 0 to 50%.

The same test, now with this note: At 5 μM.
The compound `COC(=O)[C@H](NC(=S)c1cc(-c2ccc(NC(=O)Nc3ccccc3F)cc2)no1)C(C)C` [Example 222, (R)-Methyl 2-(3-(4-(3-(2-fluorophenyl)ureido)phenyl)isoxazole-5-carbothioamido)-3-methylbutanoate] showed an inhibition at 5 µM of 50 to 75%.
`COC(=O)C(NC(=O)c1cc(-c2ccc(NC(=O)Nc3cccc(F)c3)cc2)no1)C(C)C` (stereo not drawn) [Example 151, Methyl 2-(3-(4-(3-(3-fluorophenyl)ureido)phenyl)isoxazole-5-carboxamido)-3-methylbutanoate]: the inhibition at 5 µM was 50 to 75%.
Consider `COC(=O)CCCNC(=O)c1cc(-c2ccc(NC(=O)Nc3ccc(C)cc3)cc2)no1` [Example 255, Methyl 4-(3-(4-(3-p-tolylureido)phenyl)isoxazole-5-carboxamido) butanoate], for which the “% inhibition of hDGAT1” value is given as “+ (>0% Inhibition ≦50)”.
As to `O=C(Nc1ccc(-c2cc(C(=O)NC(Cc3ccccc3)C(=O)O)on2)cc1)Nc1ccc(F)cc1F` (stereo not drawn) [Example 246, 2-(3-(4-(3-(2,4-Difluorophenyl)ureido)phenyl)isoxazole-5-carboxamido)-3-phenylpropanoic acid], the inhibition at 5 µM was in the range of 50 to 75%.

The same test, now with this note: At 10 μM.
With `COC(=O)[C@@H](NC(=O)c1onc(-c2ccc(NC(=O)Nc3ccc(F)cc3)cc2)c1-c1ccccc1)C(C)C` [Example 92, (S)-2-[(3-{4-[3-(4-Fluoro-phenyl)-ureido]-phenyl}-4-phenyl-isoxazole-5-carbonyl)-amino]-3-methyl-butyric acid methyl ester], the inhibition at 10 µM fell in the range of 0 to 50%.
On the same count and under the same terms, the value for `COC(=O)[C@@H]1CCCN1C(=S)c1cc(-c2cccc(Nc3nc4ccc(F)cc4s3)c2)no1` [Example 36, (S)-1-{3-[3-(6-Fluoro-benzothiazol-2-ylamino)-phenyl]-isoxazole-5-carbothioyl}-pyrrolidine-2-carboxylic acid methyl ester] was 50 to 75%; that for `O=C(NC1(C(=O)O)CCCC1)c1cc(-c2ccc(Nc3nc4ccc(F)cc4s3)cc2)no1` [Example 63, 1-({3-[4-(6-Fluoro-benzothiazol-2-ylamino)-phenyl]-isoxazole-5-carbonyl}-amino)-cyclopentanecarboxylic acid] was 0 to 50%; that for `COC(=O)C(C)NC(=O)c1cc(-c2ccc(NC(=O)Nc3ccc(F)cc3)cc2)no1` (stereo not drawn) [Example 115, Methyl 2-(3-(4-(3-(4-fluorophenyl)ureido)phenyl)isoxazole-5-carboxamido)propanoate] was 0 to 50%.
For the compound `COC(=O)[C@H](CC(C)C)NC(=O)c1cc(-c2ccc(NC(=O)NC3CCCCC3)cc2)no1` [Example 82, (S)-2-({3-[4-(3-cyclohexyl-ureido)-phenyl]-isoxazole-5-carbonyl}-amino)-4-methyl-pentanoic acid methyl ester], the inhibition at 10 µM was 0 to 50%.
The compound `CC(NC(=O)c1cc(-c2ccc(NC(=O)Nc3ccc(F)cc3)cc2)no1)C(=O)O` (stereo not drawn) [Example 116, 2-(3-(4-(3-(4-fluorophenyl)ureido)phenyl)isoxazole-5-carboxamido) propanoic acid] registered an inhibition at 10 µM of 75 to 100%.
Turning to “7-{3-[4-(6-Fluoro-benzothiazol-2-ylamino)-phenyl]-isoxazole-5-yl}-9-oxa-6,8-diaza-spiro[4,5]dec-7-en-10-one [Example 67]”, the “% inhibition of hDGAT1” value is on record as “+++ (>75% Inhibition ≦100)”.
`CC(C)(NC(=O)c1cc(-c2ccc(NC(=O)Nc3ccc(F)cc3)cc2)no1)C(=O)O` [Example 118, 2-(3-(4-(3-(4-fluorophenyl)ureido)phenyl)isoxazole-5-carboxamido)-2-methylpropanoic acid] yielded an inhibition at 10 µM of 50 to 75%.
As to `COC(=O)[C@@H]1CCCN1C(=O)c1cc(-c2cccc(Nc3nc4ccc(F)cc4s3)c2)no1` [Example 34, (S)-1-{3-[3-(6-Fluoro-benzothiazol-2-ylamino)-phenyl]-isoxazole-5-carbonyl}-pyrrolidine-2-carboxylic acid methyl ester], the inhibition at 10 µM lay in the range of 0 to 50%.
Compound `CC(C)C(NC(=O)c1nc(-c2ccc(NC(=O)Nc3ccc(F)cc3F)cc2)no1)C(=O)O` (stereo not drawn) [Example 104, 2-(3-(4-(3-(2,4-difluorophenyl)ureido)phenyl)-1,2,4-oxadiazole-5-carboxamido)-3-methylbutanoic acid] came in with an inhibition at 10 µM of 75 to 100%.
`CC(C)[C@@H](NC(=O)c1cc(-c2ccc(Nc3nc4ccc(F)cc4s3)cc2)no1)C(=O)O` [Example 42, (R)-2-({3-[4-(6-Fluoro-benzothiazol-2-ylamino)-phenyl]-isoxazole-5-carbonyl}-amino)-3-methyl-butyric acid] yielded an inhibition at 10 µM of 50 to 75%.
In turn, `COC(=O)C(NC(=O)c1cc(-c2ccc(NC(=O)Nc3ccc(F)cc3F)cc2C)no1)C(C)C` (stereo not drawn) [Example 137, Methyl 2-(3-(4-(3-(2,4-difluorophenyl)ureido)-2-methylphenyl)isoxazole-5-carboxamido)-3-methylbutanoate] had an inhibition at 10 µM of 0 to 50%.
For “(S)-({3-[4-(6-Fluoro-benzothiazol-2-ylamino)-phenyl]-isoxazole-5-carbothioyl}-amino)-phenyl-acetic acid [Example 55]”, the “% inhibition of hDGAT1” value is “++ (>50% Inhibition ≦75)”.
In turn, `CC(C)[C@H](NC(=O)c1c(-c2ccc(Nc3nc4ccc(F)cc4s3)cc2)noc1-c1ccccc1)C(=O)O` [Example 69, (S)-2-({3-[4-(6-Fluoro-benzothiazol-2-ylamino)-phenyl]-5-phenyl-isoxazole-4-carbonyl}-amino)-3-methyl-butyric acid] gave an inhibition at 10 µM of 0 to 50%.
